# Experimental data from patent US4264596A, “Maytansinoids, pharmaceutical compositions thereof and method of use thereof” (Takeda Chemical Industries, Ltd., priority 1980, dated 1981).
# Experiments:
# [1] = system: Tetrahymena pyriformis W; test: Antiprotozoal activity, growth inhibition by serial dilution method; type: cell-based; conditions: 28° C., 44 to 48 hours, pH 7.0, serial dilution method, read-out: Antiprotozoal activity, MIC (minimal inhibitory concentration)
# Method: Antiprotozoal activity of compound (I) was assayed with Tetrahymena pyriformis W as the test organism and a medium composed of 20 g tryptose-peptone (Difco Co.), 1 g yeast extract, 2 g glucose, 1000 ml distilled water, 10 ml 1 M phosphate buffer (pH 7.0) as the assay medium. The microorganism was incubated at 28° C. for 44 to 48 hours and the growth inhibitory activity of compound (I) was assayed by the serial dilution method.
# [2] = system: melanoma B-16; test: Antitumor therapeutic test in mice (life span prolongation), melanoma B-16 intraperitoneally transplanted, NCI-protocol 1,300; type: in vivo, mouse; conditions: i.p. once daily for 9 consecutive days
# Method: Therapeutic tests were carried out in mice according to NCI-protocol 1,300, Cancer Chemother, Reports, Part 3, 1972 , Vol.3, No.2, in which melanoma B-16 tumor cells had been intraperitoneally transplanted, compound (I) being administered intraperitoneally once daily for 9 consecutive days.
smiles,measurement,setting,value
COC1C=CC=C(C)Cc2cc(OS(=O)(=O)c3ccc(C)cc3)c(Cl)c(c2)N(C)C(=O)CC(OC(=O)C(C)C)C2(C)OC2C(C)C2CC1(O)NC(=O)O2 (stereo not drawn) [PDM-3-C20-p-toluenesulfonate],MIC,[1],1 to 2 µg/mL
"COC1C=CC=C(C)Cc2cc(OS(C)(=O)=O)c(Cl)c(c2)N(C)C(=O)CC(OC(=O)C(C)C)C2(C)OC2C(C)C2CC1(O)NC(=O)O2 (stereo not drawn) [PDM-3-C20-methenesulfonate, PDM-3-C20-methanesulfonate]","Antitumor activities B-16 (T/C %), life span prolongation",[2]; 6.2 μg/kg,154%
same,"Antitumor activities B-16 (T/C %), life span prolongation",[2]; 12.5 μg/kg,195%
same,"Antitumor activities B-16 (T/C %), life span prolongation",[2]; 25 μg/kg,178%
same,"Antitumor activities B-16 (T/C %), life span prolongation",[2]; 50 μg/kg,189%
same,"Antitumor activities B-16 (T/C %), life span prolongation",[2]; 100 μg/kg,218%
same,"Antitumor activities B-16 (T/C %), life span prolongation",[2]; 200 μg/kg,246%
COC1C=CC=C(C)Cc2cc(OS(=O)(=O)c3ccc(Cl)cc3)c(Cl)c(c2)N(C)C(=O)CC(OC(=O)C(C)C)C2(C)OC2C(C)C2CC1(O)NC(=O)O2 (stereo not drawn) [PDM-3-C20-p-chlorobenzenesulfonate],MIC,[1],2 µg/mL
COC1C=CC=C(C)Cc2cc(OS(=O)(=O)c3ccc(N)cc3)c(Cl)c(c2)N(C)C(=O)CC(OC(=O)C(C)C)C2(C)OC2C(C)C2CC1(O)NC(=O)O2 (stereo not drawn) [PDM-3-C20-p-aminobenzenesulfonate],MIC,[1],2 to 4 µg/mL
